“Also recorded” adds a separate entry of the source. Like-named read-outs stand apart in the source and are kept apart here.
Experiments:
[1] = system: frataxin deficient fibroblasts (Friedreich's ataxia patient, GM03665); assay type: cell-based
[2] = system: HepG2 human hepatocarcinoma cells; experiment: Rotenone ATP Assay (Complex I by-pass); assay type: cell-based; conditions: for Complex I by-pass activity / restoring ATP production, in words: summary statements also cover the Oxygraph assay
Experimental: This assay has been adapted from Haefeli R H, Erb M, Gemperli A C, Robay D, Courdier Fruh I, et al. (2011) NQO1-Dependent Redox Cycling of Idebenone: Effects on Cellular Redox Potential and Energy Levels. PLOS ONE 6 (3): e17963. HepG2 human hepatocarcinoma cells were co-incubated with the electron transport chain Complex I toxin rotenone+/−compounds of interest and the corresponding effect on ATP synthesis was measured with a bioluminescent substrate.
In brief, HepG2 cells were plated at 25,000 cells per well in low glucose (1 gram/Liter) DMEM medium+10% fetal calf serum and incubated for 24 hours. The following day, the media was decanted and subsequently replaced with glucose free/serum free DMEM which has been supplemented with 50 micromolar rotenone and compound of interest. Serial dilutions of compound were prepared in 3× dilutions beginning at 25 micromolar. The cells were incubated for 60 minutes in a humidified tissue culture incubator. Following incubation, ATP levels were quantified via bioluminescent assay (Promega […] Glo Assay kit) and readings were captured on a standard microplate reader.
ATP bioluminescence is plotted versus the log of compound of interest and data were used to generate EC50 values. Curve fitting was performed using a sigmoidal dose response curve fit function (GraphPad Prism software).
Robustness of curve fit was assessed as a quality control measure, with an R squared value of at least 0.80 being required for a successful curve fit. Compounds of interest showing an increase in ATP bioluminescence relative to vehicle control were verified in an independent biological replicate of n=3 technical replicates per dose.
This assay is a direct measure of the ability of compounds of interest to restore ATP production under conditions of inhibition of Complex I of the mitochondrial electron transport chain. As the majority of ATP produced via the electron transport chain is thought to derive from Complex I activity, significant impairment in Complex I function has dire biological consequences. Of note, Complex I mutations are thought to drive pathophysiology in multiple mitochondrial diseases, including Leigh syndrome and Leber's Hereditary Optic Neuropathy (LHON), while diminished Complex I activity and the resultant attenuation of ATP production has been shown in neurodegenerative diseases, including Friedreich's Ataxia, Parkinson's Disease and Huntington's Disease.

[3] = system: GM03665 cells (fibroblasts from a subject with Friedreich's ataxia); experiment: RSL3 Toxicity Assay (RSL3 Assay); assay type: cell-based, human; conditions: for EC50: Homo sapiens, Fibroblast
Experimental: In brief, GM03665 cells (Coriell Institute) were seeded in 96-well plates (Sarstedt) in DMEM cell culture media containing 10% Fetal Bovine serum and 1% Penicillin-Streptomycin (Pen-Strep) antibiotic mix at the amount of 2×10^4/mL (100 μL or 2×10^3 cells per well). Cells were left to rest overnight at 37° C. in a humidified atmosphere with 5% CO2 to allow attachment of the cells to the culture plate. Test compounds were prepared as DMSO stocks (10 mM) and were serially diluted in cell culture media to obtain 2× working solutions. Cell media was discarded and replaced by 50 μL of test compound solutions or cell media with vehicle for control wells. Within 15 minutes, 2× working solution (4 μM) of 1S,3R-RSL3 (CAS #1219810-16-8, Sigma-Aldrich) (diluted from 5 mM DMSO stock in cell culture media) was added. Final reaction volume was 100 μL and final DMSO concentration in reaction was kept below 0.2% (v/v) and equal in all wells. Final RSL3 concentration was 2 μM and test compound final concentrations in reaction were up to 1000 nM. After 24 hours of incubation cell viability was assessed by MTT test. MTT (Sigma-Aldrich) solution 1 mg/mL in 1×PBS (pH=7,4) was prepared 1 hour before the assay and filtered through Filtropur S 0.2 filters (Sarstedt). Cell media with test compounds was discarded and 100 μL of MTT solution was added to cells. The plates were incubated for 2 hours at +37° C. Thereafter, the MTT solution was removed and 100 μL of isopropanol was added to dissolve sediment. Absorption at 570 and 650 nm was measured using Hidex Sense microplate reader.

[4] = system: intact HepG2 cells; experiment: Rotenone Oxygraph Assay (high-resolution respirometry); assay type: cell-based, human
Experimental: The Oxygraph-2k (O2k, OROBOROS INSTRUMENTS, Austria) was used for measurements of respiration of intact cells. The respirometry was performed in Dulbecco's Modified Eagle Medium (DMEM) high glucose without supplements. All experiments were performed at 37° C.
HepG2 cells (ATCC collection code HB-8065™) were cultured in 10 cm^2 culture dishes in DMEM high glucose medium supplemented with 10% fetal bovine serum (FBS) and 100 units/mL penicillin and 100 μg/mL streptomycin until approximately 90% confluence was reached. Immediately prior to performing the respirometric assay, the cells were washed with media without FBS, trypsinized and resuspended in DMEM high glucose without FBS.
The final concentration of intact cells in the O2k-chamber was 0.5.10^6/mL. After stabilization of respiration, the Complex I inhibitor, rotenone, at 1 μM final concentration was added to inhibit electron flux via Complex I. Then, compound to be tested was added at 10 μM final concentration, and the change in respiration rate of intact cells was monitored.

[5] = system: Nrf-2 responsive genes; experiment: Nrf-2 Activation Assay (Nrf-2 Assay); assay type: cell-based, human; conditions: 24 hours; for activation of Nrf-2 responsive genes / pathway, in words: FIG. 7, 1 μM
Experimental: This assay was developed internally and was designed to determine if the novel test compounds disclosed herein active Nrf-2 and thereby promote resolution of inflammation by the mechanism believed to be responsible for the activity of omaveloxolone.
Briefly, GM03665 Eriedreich Ataxia patient fibroblasts were grown in 12 Well Plates (TC Cell+F) (Sarstedt, Nümbrecht Germany), at a density of 12×10^4 cells/per well in DMEM/F12 (Gibco, ThermoFisher Scientific, Waltham, MA, USA) cell media supplemented with 10% FBS and 1% Pen/Strep. Cells were left to rest overnight at 37° C. in a humidified atmosphere with 5% CO2 to allow attachment of the cells to the culture plate. Before continuing assay visual inspection of each well was done by light microscopy to detect any possible bacterial and fungal contamination. […] After incubation, cell media was removed and total RNA from the cells was isolated using E.Z.N.A.® Total RNA Kit I (Omega Bio-tek, Norcross, Georgia, USA) spin columns, and first-strand cDNA synthesis was carried out using a High Capacity cDNA Reverse Transcription Kit (Applied Biosystems™, Foster City, CA) following the manufacturer's instructions. qPCR analysis of gene expression was performed by mixing SYBR® Green Master Mix (Applied Biosystems™) with synthesized cDNA and forward and reverse primers. […] (60 cycles), and 95° C. for 60 seconds, followed by melt curve analysis at 72-95° C., 0.3° C./sec. The relative expression levels for each gene were calculated with the ΔΔCt method and normalized to the expression of REEP5 and SNRPD3 genes.

[6] = target: lipoxygenase-15 enzyme (Glycine max (Soybean) (Glycine hispida), UniProt P08170); experiment: Lipoxygenase-15 Assay (LO-15 Assay); assay type: biochemical; conditions: reduced forms tested

| Compound | protection from BSO induced cell death / ferroptosis, in words [1] | Complex I by-pass activity / restoring ATP production, in words [2] | activity in the RSL3 Assay, in words [3] | Rotenone Oxygraph Assay % Increase (Table 7) ([4]; 1 μM rotenone, 10 μM compound) | activation of Nrf-2 responsive genes / pathway, in words [5] | lipoxygenase-15 inhibition, in words [6] | Nrf-2 Assay (Table 7) ([5]; 1 μM compound, qPCR of Nrf-2 responsive genes) | EC50 ([3]; 2 μM RSL3, 24 hours, MTT, mean of at least three measurements, unit from Table 7, read-out: Mean EC50, RSL3 Assay (Table 3)) [nM] | EC50 ([3]; 2 μM RSL3, 24 hours, MTT, read-out: RSL3 Assay EC50, nM (Table 7)) [nM] | activity in the Rotenone Oxygraph Assay, in words [4] | Percent increase in ATP (Table 4, Rotenone Oxygraph Assay) ([4]; 1 μM rotenone, 10 μM compound, change in respiration rate of intact cells) | Rotenone ATP Assay EC50, nM (Table 7) ([2]; HepG2, 50 micromolar rotenone, 60 minutes) | RSL3 Assay EC50, nM (Table 7) ([3]; 2 μM RSL3, 24 hours, MTT) | Mean EC50, RSL3 Assay (Table 3) ([3]; 2 μM RSL3, 24 hours, MTT, mean of at least three measurements, unit from Table 7) |
| --- | --- | --- | --- | --- | --- | --- | --- | --- | --- | --- | --- | --- | --- | --- |
| CC(C)=CCC/C(C)=C/CC/C(C)=C/CC[C@@](C)(O)CCC1=C(C)C(=O)C(C)=C(C)C1=O (stereo in doubt) [Vatiquinone, reference compound] | ability to circumvent BSO induced cell death | not | active |  |  |  |  |  |  |  |  |  |  |  |
| Cc1c(C)c2c(c(C)c1O)CC[C@@](C)(CCC=C(F)F)O2 [Compound 67, (R)-2-(4,4-difluorobut-3-en-1-yl)-2,5,7,8-tetramethylchroman-6-ol] | possess both activities | possess both activities |  |  |  |  |  |  |  |  |  |  |  |  |
| CC1=C(C)C(=O)C(CC[C@](C)(O)CC/C=C(\C)CC/C=C(\C)CCC=C2COC2)=C(C)C1=O [Compound E, 2-((R,6E,10E)-3-hydroxy-3,7,11-trimethyl-14-(oxetan-3-ylidene)tetradeca-6,10-dien-1-yl)-3,5,6-trimethylcyclohexa-2,5-diene-1,4-dione] | possess both activities; also recorded: able to prevent ferroptotic cell death; also recorded: active | possess both activities | active; also recorded: able to prevent ferroptotic cell death | 37.9 +/− 10.7% | do not activate | outside of the range of the assay |  |  |  |  |  |  |  |  |
| CC1=C(C)C(=O)C(CC[C@](C)(O)CC/C=C(\C)CCC=C(F)F)=C(C)C1=O [Compound H, (R,E)-2-(11,11-difluoro-3-hydroxy-3,7-dimethylundeca-6,10-dien-1-yl)-3,5,6-trimethylcyclohexa-2,5-diene-1,4-dione] | able to prevent ferroptotic cell death; also recorded: active |  | active; also recorded: able to prevent ferroptotic cell death | 54.3 +/− 13% | do not activate | effective inhibitors |  |  |  |  |  |  |  |  |
| CC1=C(C)C(=O)C(CC[C@@](C)(O)CC/C=C(\C)CCC=C(F)F)=C(C)C1=O [Compound L, (S,E)-2-(11,11-difluoro-3-hydroxy-3,7-dimethylundeca-6,10-dien-1-yl)-3,5,6-trimethylcyclohexa-2,5-diene-1,4-dione] | possess both activities; also recorded: able to prevent ferroptotic cell death; also recorded: active | possess both activities | active; also recorded: able to prevent ferroptotic cell death | 58.6 +/− 15.5% | do not activate | effective inhibitors |  |  |  |  |  |  |  |  |
| CC1=C(C)C(=O)C(CC[C@@](C)(O)COCCC[Si](C)(C)C)=C(C)C1=O [Compound M, (R)-2-(3-hydroxy-3-methyl-4-(3-(trimethylsilyl)propoxy)butyl)-3,5,6-trimethylcyclohexa-2,5-diene-1,4-dione] | able to prevent ferroptotic cell death; also recorded: active | active | active; also recorded: able to prevent ferroptotic cell death | 56.6 +/− 11.3% | do not activate | best result; also recorded: effective inhibitors | Inactive | 41.2 | 41.2 |  |  |  |  |  |
| COC1=C(OC)C(=O)C(CCCCCCCCCCO)=C(C)C1=O [Idebenone, reference compound] | very weakly active/borderline inactive | ability to restore ATP production when Complex I is inhibited |  | 70.2 +/− 15% |  |  |  |  |  |  |  |  |  |  |
| CC1(C)CC[C@]2(NC(=O)C(C)(F)F)CC[C@]3(C)[C@H](C(=O)C=C4[C@@]5(C)C=C(C#N)C(=O)C(C)(C)[C@@H]5CC[C@]43C)[C@@H]2C1 [Omaveloxolone, reference compound] | ability to circumvent BSO induced cell death; also recorded: displayed anti-ferroptotic activity | not | completely inactive | Inactive | positive and does |  |  |  |  | inactive | Inactive | Inactive | Inactive | Inactive |
